In ChEMBL document CHEMBL1667853, “Design and synthesis of potent Gram-negative specific LpxC inhibitors” (Bioorg Med Chem Lett, 2011):
In brackets after ≈: the same amount, converted by molar mass.

Experiments:
Escherichia coli [1] = assay: Antimicrobial activity against Escherichia coli HS294 by broth dilution assay; format: functional
[2] = target: T1, UDP-3-O-acyl-N-acetylglucosamine deacetylase (Escherichia coli K-12, UniProt P0A725); assay: Inhibition of Escherichia coli LpxC
T1 sequence (P0A725 whole entry): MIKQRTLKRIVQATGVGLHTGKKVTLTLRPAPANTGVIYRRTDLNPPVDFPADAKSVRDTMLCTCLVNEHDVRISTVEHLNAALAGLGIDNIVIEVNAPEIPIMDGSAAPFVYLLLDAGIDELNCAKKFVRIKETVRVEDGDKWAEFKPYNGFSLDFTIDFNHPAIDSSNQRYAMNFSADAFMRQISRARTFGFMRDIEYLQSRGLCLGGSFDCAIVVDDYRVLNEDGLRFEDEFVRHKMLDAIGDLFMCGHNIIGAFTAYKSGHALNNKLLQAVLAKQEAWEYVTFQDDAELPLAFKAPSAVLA

Escherichia coli [3] = assay: Antimicrobial activity against Escherichia coli ATCC 25922 by broth dilution assay; format: functional
Escherichia coli [4] = assay: Antimicrobial activity against multidrug-resistant Escherichia coli by broth dilution assay; format: functional
Pseudomonas aeruginosa [5] = assay: Antimicrobial activity against wild type Pseudomonas aeruginosa by broth dilution assay; format: functional
Pseudomonas aeruginosa [6] = assay: Antimicrobial activity against multidrug-resistant Pseudomonas aeruginosa by broth dilution assay; format: functional
Escherichia coli [7] = assay: Antimicrobial activity against wild type Escherichia coli by broth dilution assay; format: functional
[8] = test system: Stenotrophomonas maltophilia; assay: Antimicrobial activity against wild type Stenotrophomonas maltophilia by broth dilution assay; format: functional
Klebsiella pneumoniae = assay: Antimicrobial activity against wild type Klebsiella pneumoniae by broth dilution assay; format: functional

| SMILES | MIC (Escherichia coli [1]) | IC50 [2] | MIC (Escherichia coli [3]) | also measured |
| --- | --- | --- | --- | --- |
| C[C@@H](O)[C@@H](NC(=O)N1CCN(c2ccc(C#Cc3ccc(Cl)cc3)cc2)CC1)C(=O)NO | 1.56 µg/mL (≈ 3.41 µM) | 5 nM | 6.25 µg/mL (≈ 13.7 µM) |  |
| NC[C@@H](NC(=O)N1CCC(c2ccc(C#Cc3ccccc3)cc2)CC1)C(=O)NO | 6.25 µg/mL (≈ 15.4 µM) | 163 nM | 12.5 µg/mL (≈ 30.8 µM) |  |
| C[C@@H](O)[C@@H](NC(=O)NCc1ccc(C#Cc2ccccc2)cc1)C(=O)NO | 12.5 µg/mL (≈ 34 µM) | 201 nM | > 100 µg/mL |  |
| C[C@@H](O)[C@H](C(=O)NO)N1Cc2ccc(C#Cc3ccccc3)cc2C1=O |  | 34000 nM |  |  |
| C[C@@H](O)[C@@H](NC(=O)N1CCN(c2ccc(C#Cc3ccc(N4CCOCC4)cc3)cc2)CC1)C(=O)NO | 0.1 µg/mL (≈ 0.197 µM) | 3 nM | 25 µg/mL (≈ 49.3 µM) |  |
| CCCc1cc(C2=N[C@@H](C(=O)NO)CO2)cc(OC)c1OC |  |  |  | Ki [2]: 50 nM |
| C[C@@H](O)[C@H](C(=O)NO)N1Cc2cc(Br)ccc2C1=O |  | > 61000 nM |  |  |
| C[C@@H](O)[C@H](C(=O)NO)N1Cc2cc(C#Cc3ccc(-c4ccccc4)cc3)ccc2C1=O |  | 13 nM |  |  |
| C[C@@H](O)[C@@H](NC(=O)N1CCN(c2ccc(C#Cc3ccc(CO)cc3)cc2)CC1)C(=O)NO | 0.4 µg/mL (≈ 0.884 µM) | 12 nM | 12.5 µg/mL (≈ 27.6 µM) |  |
| C[C@@H](O)[C@H](C(=O)NO)N1Cc2cc(-c3ccc(C#Cc4ccccc4)cc3)ccc2C1=O |  | 29 nM |  |  |
| C[C@@H](O)[C@@H](NC(=O)N1CCN(c2ccc(C#Cc3ccc(N)cc3)cc2)CC1)C(=O)NO | 1.56 µg/mL (≈ 3.57 µM) | 26 nM | 3.13 µg/mL (≈ 7.15 µM) |  |
| CCCCCCCCCCCCCC(=O)O[C@@H]1[C@@H](CC(=O)NO)CO[C@H](CO)[C@H]1O |  |  |  | Ki [2]: 650 nM |
| C[C@@H](O)[C@@H](NC(=O)N1CCC(c2ccc(C#Cc3ccccc3)cc2)C1)C(=O)NO (stereo not given in full) | 12.5 µg/mL (≈ 30.7 µM) | 36 nM | 100 µg/mL (≈ 245 µM) |  |
| C[C@@H](O)[C@@H](NC(=O)N1CCC(c2ccc(C#Cc3ccccc3)cc2)CC1)C(=O)NO | 0.8 µg/mL (≈ 1.9 µM) |  | 12.5 µg/mL (≈ 29.7 µM) |  |
| C[C@@H](O)[C@@H](NC(=O)N1CCC(c2cccc(C#Cc3ccccc3)c2)C1)C(=O)NO (stereo not given in full) | 1.56 µg/mL (≈ 3.83 µM) | 146 nM | 100 µg/mL (≈ 245 µM) |  |
| CC[C@H]1OC(=O)[C@H](C)[C@@H](O[C@H]2C[C@@](C)(OC)[C@@H](O)[C@H](C)O2)[C@H](C)[C@@H](O[C@@H]2O[C@H](C)C[C@H](N(C)C)[C@H]2O)[C@](C)(O)C[C@@H](C)CN(C)[C@H](C)[C@@H](O)[C@]1(C)O [AZITHROMYCIN] |  |  |  | MIC (Escherichia coli [4]): 32 µg/mL (≈ 42.7 µM); MIC (Pseudomonas aeruginosa [5]): 4 µg/mL (≈ 5.34 µM); MIC (Pseudomonas aeruginosa [6]): 32 µg/mL (≈ 42.7 µM) |
| C[C@@H](O)[C@@H](NC(=O)NCCc1ccc(C#Cc2ccccc2)cc1)C(=O)NO | 50 µg/mL (≈ 131 µM) | 1270 nM | > 100 µg/mL |  |
| C[C@@H](O)[C@@H](NC(=O)N1CCN(c2ccc(-c3ccc(N4CCOCC4)cc3)cc2)CC1)C(=O)NO | 3.13 µg/mL (≈ 6.47 µM) | 16.3 nM | 6.25 µg/mL (≈ 12.9 µM) |  |
| C[C@@H](O)[C@@H](NC(=O)N1CCN(c2ccc(C#Cc3ccc(F)cc3)cc2)CC1)C(=O)NO | 0.8 µg/mL (≈ 1.82 µM) | 7 nM | 3.13 µg/mL (≈ 7.11 µM) |  |
| C[C@@H](O)[C@@H](NC(=O)N1CCN(c2ccc(C#Cc3ccc(CN4CCOCC4)cc3)cc2)CC1)C(=O)NO | 1.56 µg/mL (≈ 2.99 µM) | 14 nM | 6.25 µg/mL (≈ 12 µM) |  |
| C[C@@H](O)[C@@H](NC(=O)N1CCN(c2ccc(-c3cncs3)cc2)CC1)C(=O)NO | 3.13 µg/mL (≈ 7.72 µM) | 12 nM | 100 µg/mL (≈ 247 µM) |  |
| C[C@@H](O)[C@@H](NC(=O)N1CCN(c2ccc(C#Cc3ccncc3)cc2)CC1)C(=O)NO | 0.8 µg/mL (≈ 1.89 µM) | 4 nM | 3.13 µg/mL (≈ 7.39 µM) |  |
| C[C@@H](O)[C@@H](NC(=O)N1CCN(c2ccc(C#Cc3ccc(C(F)(F)F)cc3)cc2)CC1)C(=O)NO | 1.56 µg/mL (≈ 3.18 µM) | 10.4 nM | 12.5 µg/mL (≈ 25.5 µM) |  |

| SMILES | MIC (Escherichia coli [1]) | IC50 [2] | MIC (Escherichia coli [3]) | also measured |
| --- | --- | --- | --- | --- |
| O=C(N[C@H](CO)[C@H](O)c1ccc([N+](=O)[O-])cc1)C(Cl)Cl [CHLORAMPHENICOL] |  |  |  | MIC (Escherichia coli [7]): 2 µg/mL (≈ 6.19 µM); MIC (Escherichia coli [4]): > 32 µg/mL; MIC (Pseudomonas aeruginosa [5]): 2 µg/mL (≈ 6.19 µM); MIC (Pseudomonas aeruginosa [6]): > 256 µg/mL |
| C[C@@H](O)[C@H](C(=O)NO)N1Cc2cc(-c3ccc(-c4ccccc4)cc3)ccc2C1=O |  | 50 nM |  |  |
| O=C(O)c1cn(C2CC2)c2cc(N3CCNCC3)c(F)cc2c1=O [CIPROFLOXACIN] |  |  |  | MIC [8]: 0.016 µg/mL (≈ 0.0483 µM); MIC (Klebsiella pneumoniae): 1 µg/mL (≈ 3.02 µM); MIC (Escherichia coli [4]): > 32 µg/mL; MIC (Pseudomonas aeruginosa [5]): 0.012 µg/mL (≈ 0.0362 µM); MIC (Pseudomonas aeruginosa [6]): > 8 µg/mL |
| C[C@@H](O)[C@H](C(=O)NO)N1Cc2cc(C#Cc3cccc(-c4ccccc4)c3)ccc2C1=O |  | 971 nM |  |  |
| C[C@@H](O)[C@@H](NC(=O)N1CCN(c2ccc(-c3ccccc3)cc2)CC1)C(=O)NO | 0.8 µg/mL (≈ 2.01 µM) | 5.6 nM | 3.13 µg/mL (≈ 7.86 µM) |  |
| C[C@@H](O)[C@H](C(=O)NO)N1Cc2cc(-c3ccccc3)ccc2C1=O |  | 41000 nM |  |  |
| C[C@@H](O)[C@@H](NC(=O)N1CCC(C#Cc2ccccc2)CC1)C(=O)NO | 3.13 µg/mL (≈ 9.06 µM) | 207 nM | 25 µg/mL (≈ 72.4 µM) |  |
| C[C@@H](O)[C@@H](NC(=O)N1CCCC(c2ccc(C#Cc3ccccc3)cc2)C1)C(=O)NO (stereo not given in full) | 25 µg/mL (≈ 59.3 µM) | 387 nM | > 100 µg/mL |  |
| C[C@@H](O)[C@H](C(=O)NO)n1[nH]c2cc(C#Cc3ccccc3)ccc2c1=O |  | 200 nM |  |  |
| CN(C)[C@@H]1C(O)=C(C(N)=O)C(=O)[C@@]2(O)C(O)=C3C(=O)c4c(O)cccc4[C@@](C)(O)[C@H]3C[C@@H]12 [TETRACYCLINE] |  |  |  | MIC (Escherichia coli [7]): 1 µg/mL (≈ 2.25 µM); MIC (Escherichia coli [4]): > 2 µg/mL; MIC (Pseudomonas aeruginosa [5]): 1 µg/mL (≈ 2.25 µM); MIC (Pseudomonas aeruginosa [6]): 16 µg/mL (≈ 36 µM) |
| C[C@@H](O)[C@@H](NC(=O)N1CCN(c2ccc(C#Cc3ccccn3)cc2)CC1)C(=O)NO | 6.25 µg/mL (≈ 14.8 µM) | 10 nM | > 100 µg/mL |  |
| C[C@@H](O)[C@@H](NC(=O)N1CCN(c2ccc(C#Cc3ccccc3)cc2)CC1)C(=O)NO | 0.2 µg/mL (≈ 0.473 µM) | 2.4 nM | 1.56 µg/mL (≈ 3.69 µM) |  |
| C[C@@H](O)[C@H](C(=O)NO)N1Cc2cc(C#Cc3ccccc3)ccc2C1=O |  | 130 nM |  |  |
| C[C@@H](O)[C@@H](NC(=O)N1CCC(c2ccccc2)CC1)C(=O)NO | 12.5 µg/mL (≈ 38.9 µM) | 3940 nM |  |  |
| CC(C)(O)[C@@H](NC(=O)N1CCN(c2ccc(-c3ccccc3)cc2)CC1)C(=O)NO | 0.8 µg/mL (≈ 1.94 µM) | 7 nM | 3.13 µg/mL (≈ 7.59 µM) |  |
| C[C@@H](O)[C@@H](NC(=O)N1CCN(c2ccc(C#Cc3cnccn3)cc2)CC1)C(=O)NO | 6.25 µg/mL (≈ 14.7 µM) | 136 nM | > 100 µg/mL |  |
| C[C@@H](O)[C@@H](NC(=O)N1CCN(c2ccc(C#Cc3cccnc3)cc2)CC1)C(=O)NO | 12.5 µg/mL (≈ 29.5 µM) | 63 nM | 100 µg/mL (≈ 236 µM) |  |
| C[C@@H](O)[C@@H](NC(=O)N1CCN(c2ccc(C#Cc3cccs3)cc2)CC1)C(=O)NO | 1.56 µg/mL (≈ 3.64 µM) | 21 nM | 25 µg/mL (≈ 58.3 µM) |  |
| C[C@@H](O)[C@@H](NC(=O)N1CCN(c2ccc(C#Cc3ccc(N4CCNCC4)cc3)cc2)CC1)C(=O)NO | 0.4 µg/mL (≈ 0.79 µM) | 23.3 nM | 6.25 µg/mL (≈ 12.3 µM) |  |
| C[C@@H](O)[C@@H](NC(=O)N1CCN(c2ccc(C#Cc3ccc(CC#N)cc3)cc2)CC1)C(=O)NO | 0.8 µg/mL (≈ 1.73 µM) | 11 nM | 6.25 µg/mL (≈ 13.5 µM) |  |
| CC(C)(O)[C@@H](NC(=O)N1CCC(c2ccc(-c3ccccc3)cc2)CC1)C(=O)NO | 0.2 µg/mL (≈ 0.486 µM) | 2.5 nM | 0.8 µg/mL (≈ 1.94 µM) |  |
| C[C@@H](O)[C@@H](NC(=O)N1CCN(c2ccc(C#Cc3ccc(O)cc3)cc2)CC1)C(=O)NO | 0.1 µg/mL (≈ 0.228 µM) | 4 nM | 1.56 µg/mL (≈ 3.56 µM) |  |
